Data taken from publication PMC5742531, “Bio-Catalytic Structural Transformation of Anti-cancer Steroid, Drostanolone Enanthate with Cephalosporium aphidicola and Fusarium lini, and Cytotoxic Potential Evaluation of Its Metabolites against Certain Cancer Cell Lines” (Frontiers in Pharmacology, 2017).
Like-named read-outs stand apart in the source and are kept apart here.

Columns and labels:
[1] = system: HeLa (human cervical carcinoma ATCC CCl-2); experiment: MTT cytotoxicity assay, HeLa cell line; type: cell-based; settings: 24 h treatment, HeLa cells, read-out: HeLa cell line (Cervical cancer) IC50 ± SD
Experimental: (§1) The cytotoxicity of samples was measured against HeLa (human cervical carcinoma ATCC CCl-2), PC-3 (human prostate cancer ATCC CRL-1435), NCl-H460 (human lung carcinoma ATCC HTB-177), HCT116 (human colon cancer ATCC CCl-247), and 3T3 (control fibroblast normal ATCC CRL-1658) cell lines by using standard MTT assay. Cell lines were grown in DMEM F12 media, supplemented with 10% FBS under a 5% CO2 atmosphere at 37°C in an incubator.
(§2) The colorimetric assay MTT [3-(4, 5-dimethyl thiazol-2yl)-2, 5-diphenyl tetrazolium bromide] was used for the evaluation of cell metabolic activity. In this assay, the yellow MTT is reduced to purple formazon in the mitochondria of the living cells (Gerlier and Thomasset, [1986]). The more the living cells, the more the color and thus more absorbance is observed by colorimeter (Fesahat et al., [2015]). We have used this method to analyze the effect of our transformed products on cellular cytotoxicity against cancer cells. Around 10,000 cells of each cell line (HeLa, PC3, H460, HCT116 cancers, and 3T3 normal) were seeded in 96-well plates. After reaching 80–90% confluency, they were treated with various concentrations of compounds (25, 50, 75, 100, and 200 μM) for 24 h. All compounds were dissolved in sterile DMSO to make a 200 mM stock solution. The solution was filtered, and serial dilutions were made in growth medium. 600 μL of each dilution was used to treat 3 wells (triplicate of each) of 96 well plate i.e., 200 μL each. Each experiment was performed in three biological replicates. MTT was added, and incubated for 4 h. […] The Multiskan reader gives λmax at 540 nm in DMSO treated 3T3 fibroblast cells (that are more confluent in morphology) whereas in case of cancer cells, 570 nm gives λmax (Bonmati-Carrion et al., [2013]; Danihelová et al., [2013]). A broad range of epithelial carcinoma cell lines were used in this experiment where cisplatin was a common drug of choice. It targets DNA, interferes with cell division during mitosis and induces apoptosis (Eastman, [1999]). IC50 values were calculated to determine the minimum concentration required to kill 50% of the cells.
(§3) % Inhibition=100-(At-Ab)/(Ac-Ab) ×100% Cell survival=(At-Ab)/(Ac-Ab) ×100

[2] = system: PC-3 (human prostate cancer ATCC CRL-1435); experiment: MTT cytotoxicity assay, PC-3 cell line; type: cell-based; settings: 24 h treatment, PC3 cells, read-out: PC3 cell line (Prostate cancer) IC50 ± SD
Experimental: as §1, §2, §3

[3] = system: HCT116 (human colon cancer ATCC CCl-247); experiment: MTT cytotoxicity assay, HCT116 cell line; type: cell-based; settings: HCT116 cells, read-out: HCT116 cell line (Colon cancer) IC50 ± SD
Experimental: as §1, §2, §3

[4] = system: 3T3 (control fibroblast normal ATCC CRL-1658); experiment: MTT cytotoxicity assay, 3T3 normal cell line; type: cell-based; settings: 3T3 normal cells, read-out: 3T3 cell line (Mouse fibroblast) IC50 ± SD
Experimental: as §1, §2, §3

[5] = system: NCl-H460 (human lung carcinoma ATCC HTB-177); experiment: MTT cytotoxicity assay, H460 cell line; type: cell-based; settings: H460 cells, read-out: H460 cell line (Lung cancer) IC50 ± SD
Experimental: as §1, §2, §3

[6] = Homo sapiens, HCT-116, 24 h treatment
[7] = Mus musculus, NIH3T3, 24 h treatment
[8] = Homo sapiens, NCI-H460, 24 h treatment

## CC1=C[C@@]2(C)C(=CC1=O)CC[C@@H]1[C@@H]2CC[C@]2(C)C(=O)CC[C@@H]12 [Compound 5, 2-methylandrosta-1,4-diene-3,17-dione]
[1]; Homo sapiens
  IC50: 39.8 ± 1.5 µM
[2]; Homo sapiens, PC-3, 24 h
  IC50: 84 ± 3.1 µM
[3]; [6]
  IC50: 30.4 ± 1.6 µM
[4]; [7]
  IC50: > 150 µM
other
  melting point: 198 to 202 °C

## CC1=C[C@@]2(C)C(=CC1=O)CC[C@@H]1[C@@H]2CC[C@]2(C)C(=O)CC[C@@]12O [Compound 7, 2-methylandrosta-14α-hydroxy-1,4-diene-3,17-dione]
[1]; Homo sapiens
  IC50: 43.9 ± 2.4 µM
[2]; Homo sapiens, PC-3, 24 h
  IC50: 59.1 ± 2.6 µM
[5]; [8]
  IC50: 38.5 ± 2.8 µM
[3]; [6]
  IC50: 46.6 ± 3 µM
[4]; [7]
  IC50: > 150 µM
other
  melting point: 224 to 228 °C

## C[C@@H]1C[C@@]2(C)[C@@H](CC[C@@H]3[C@@H]2CC[C@]2(C)[C@@H](O)CC[C@@H]32)C[C@@H]1O [Compound 4, 2α-methyl-3α,17β-dihydroxy-5α-androstane]
[1]; Homo sapiens
  IC50: 49.5 ± 2.2 µM
[2]; Homo sapiens, PC-3, 24 h
  IC50: 60.4 ± 0.9 µM
[5]; [8]
  IC50: 12.4 ± 2.3 µM
[3]; [6]
  IC50: 80.9 ± 1.6 µM
[4]; [7]
  IC50: > 150 µM
other
  melting point: 242 to 245 °C

## CC1=C[C@@]2(C)C(=CC1=O)CC[C@@H]1[C@@H]2[C@H](O)C[C@]2(C)C(=O)CC[C@@H]12 [Compound 6, 2-methylandrosta-11α-hydroxy-1,4-diene-3,17-dione]
[1]; Homo sapiens
  IC50: 40.7 ± 0.9 µM
[2]; Homo sapiens, PC-3, 24 h
  IC50: 58.4 ± 1.6 µM
[5]; [8]
  IC50: 33.2 ± 1 µM
[3]; [6]
  IC50: 45.9 ± 4.2 µM
[4]; [7]
  IC50: > 150 µM
other
  melting point: 230 to 234 °C

## C[C@@H]1C[C@@]2(C)[C@H](CC1=O)C[C@@H](O)[C@@H]1[C@@H]2CC[C@]2(C)C(=O)CC[C@@H]12 [Compound 3, 2α-methyl-7α-hydroxy-5α-androstan-3,17-dione]
[1]; Homo sapiens
  IC50: 58 ± 1 µM
[2]
  IC50: 68.1 ± 1.2 µM
[2]; Homo sapiens, PC-3, 24 h
  IC50: 68 ± 1.2 µM
[5]; [8]
  IC50: 16.7 ± 2.6 µM
[3]; [6]
  IC50: 42.8 ± 1.2 µM
[4]; [7]
  IC50: > 150 µM
other
  melting point: 230 to 234 °C

## N.N.[Cl][Pt][Cl] [cisplatin, reference compound]
[1]
  IC50: 40.1 ± 2 µM
[2]
  IC50: 76.5 ± 1.2 µM
[5]; 24 h treatment
  IC50: 22.2 ± 2.1 µM
[3]; 24 h treatment
  IC50: 11.2 ± 3.03 µM
[4]; 24 h treatment
  IC50: 42.7 ± 0.8 µM

## CC1=C[C@@]2(C)[C@H](CC1=O)C[C@@H](O)[C@@H]1[C@@H]2CC[C@]2(C)C(=O)CC[C@@H]12 [Compound 8, 2-methylandrosta-7α-hydroxy-1-ene-3,17-dione]
[1]; Homo sapiens
  IC50: 19.6 ± 1.4 µM
[2]; Homo sapiens, PC-3, 24 h
  IC50: 51.8 ± 3.4 µM
[5]; [8]
  IC50: 26.4 ± 0.9 µM
[3]; [6]
  IC50: 55 ± 1.9 µM
[4]; [7]
  IC50: 74.6 ± 3.7 µM
other
  melting point: 250 to 256 °C

## CCCCCCC(=O)OC1CCC2C3CCC4CC(=O)C(C)CC4(C)C3CCC12C (centres unmarked) [Compound 1, drostanolone enanthate]
[1]; Homo sapiens
  IC50: 54.7 ± 1.6 µM
[2]; Homo sapiens, PC-3, 24 h
  IC50: 96.2 ± 3 µM
[5]; [8]
  IC50: 5 ± 1.2 µM
[3]; [6]
  IC50: 3.1 ± 3.2 µM
[4]; [7]
  IC50: > 150 µM

## C[C@@H]1C[C@@]2(C)[C@@H](CC[C@@H]3[C@@H]2CC[C@]2(C)[C@@H](O)CC[C@@]32O)C[C@@H]1O [Compound 2, 2α-methyl-3α,14α,17β-trihydroxy-5α-androstane]
[1]; Homo sapiens
  IC50: 64.3 ± 3 µM
[2]; Homo sapiens, PC-3, 24 h
  IC50: 84.6 ± 6.4 µM
[5]; [8]
  IC50: 44.4 ± 2 µM
[3]; [6]
  IC50: 39.4 ± 2 µM
[4]; [7]
  IC50: > 150 µM

## C[C@@H]1C[C@@]2(C)[C@@H](CC[C@@H]3[C@@H]2CC[C@]2(C)[C@@H](O)CC[C@@H]32)CC1=O [Compound 9, 2α -methyl-5α-androstane-17β-hydroxy-3-one]
[1]; Homo sapiens
  IC50: 25.1 ± 1.6 µM
[2]; Homo sapiens, PC-3, 24 h
  IC50: 57.8 ± 3.2 µM
[5]; [8]
  IC50: 31.8 ± 1.2 µM
[3]; [6]
  IC50: 2.8 ± 0.2 µM
[4]; [7]
  IC50: 62.1 ± 1.2 µM
